Results taken from ChEMBL document CHEMBL3045273, “Synthesis, characterization, and pharmacological evaluation of 1-[2-(6-nitro-4-oxo-2-phenyl-4H-quinazolin-3-yl)-ethyl]-3-phenyl ureas” (2013).
Converted amounts (≈) assume the structure as drawn.

Assays:
Escherichia coli [1] = experiment: Antibacterial activity against Escherichia coli ATCC 25922 assessed as initial concentration required for appearance of zone of inhibition after 24 hr; assay type: functional
Staphylococcus aureus [2] = experiment: Antibacterial activity against Staphylococcus aureus ATCC 25923 assessed as growth inhibition at 300 ug/ml after 24 hr by Kirby-Bauer disk diffusion method; assay type: functional; conditions: ATCC 25923, 24 h, read-out: DIZ
Candida albicans [3] = experiment: Antifungal activity against Candida albicans ATCC 66027 assessed as growth inhibition at 300 ug/ml after 24 hr by Kirby-Bauer disk diffusion method; assay type: functional; conditions: ATCC 66027, 24 h, read-out: DIZ
Candida albicans [4] = experiment: Antifungal activity against Candida albicans ATCC 66027 assessed as growth inhibition after 24 hr by serial broth dilution method; assay type: functional; conditions: ATCC 66027, 24 h
Escherichia coli [5] = experiment: microbe, parasite or virus in culture; conditions: ATCC 25922, 24 h, read-out: DIZ
Escherichia coli [6] = experiment: Antibacterial activity against Escherichia coli ATCC 25922 assessed as growth inhibition after 24 hr by serial broth dilution method; assay type: functional; conditions: ATCC 25922, 24 h
Bacillus subtilis [7] = experiment: Antibacterial activity against Bacillus subtilis ATCC 11774 assessed as growth inhibition after 24 hr by serial broth dilution method; assay type: functional; conditions: ATCC 11774, 24 h
Pseudomonas aeruginosa [8] = experiment: Antibacterial activity against Pseudomonas aeruginosa ATCC 27853 assessed as growth inhibition after 24 hr by serial broth dilution method; assay type: functional; conditions: ATCC 27853, 24 h
Pseudomonas aeruginosa [9] = experiment: Antibacterial activity against Pseudomonas aeruginosa ATCC 27853 assessed as growth inhibition at 300 ug/ml after 24 hr by Kirby-Bauer disk diffusion method; assay type: functional; conditions: ATCC 27853, 24 h, read-out: DIZ
Pseudomonas aeruginosa [10] = experiment: Antibacterial activity against Pseudomonas aeruginosa ATCC 27853 assessed as initial concentration required for appearance of zone of inhibition after 24 hr; assay type: functional
Staphylococcus aureus [11] = experiment: Antibacterial activity against Staphylococcus aureus ATCC 25923 assessed as growth inhibition after 24 hr by serial broth dilution method; assay type: functional; conditions: ATCC 25923, 24 h
Candida albicans [12] = experiment: Antifungal activity against Candida albicans ATCC 66027 assessed as initial concentration required for appearance of zone of inhibition after 24 hr; assay type: functional
Staphylococcus aureus [13] = experiment: Antibacterial activity against Staphylococcus aureus ATCC 25923 assessed as initial concentration required for appearance of zone of inhibition after 24 hr; assay type: functional
Escherichia coli [14] = experiment: microbe, parasite or virus in culture; conditions: ATCC 25922, 24 h, read-out: DIZ; remark: listed apart in the source
Candida albicans [15] = experiment: Antifungal activity against Candida albicans ATCC 66027 assessed as growth inhibition at 100 ug/ml after 24 hr by Kirby-Bauer disk diffusion method; assay type: functional; conditions: ATCC 66027, 24 h, read-out: DIZ
Bacillus subtilis [16] = experiment: Antibacterial activity against Bacillus subtilis ATCC 11774 assessed as growth inhibition at 100 ug/ml after 24 hr by Kirby-Bauer disk diffusion method; assay type: functional; conditions: ATCC 11774, 24 h, read-out: DIZ
Bacillus subtilis [17] = experiment: Antibacterial activity against Bacillus subtilis ATCC 11774 assessed as initial concentration required for appearance of zone of inhibition after 24 hr; assay type: functional
Bacillus subtilis [18] = experiment: Antibacterial activity against Bacillus subtilis ATCC 11774 assessed as growth inhibition at 300 ug/ml after 24 hr by Kirby-Bauer disk diffusion method; assay type: functional; conditions: ATCC 11774, 24 h, read-out: DIZ
Pseudomonas aeruginosa [19] = experiment: Antibacterial activity against Pseudomonas aeruginosa ATCC 27853 assessed as growth inhibition at 100 ug/ml after 24 hr by Kirby-Bauer disk diffusion method; assay type: functional; conditions: ATCC 27853, 24 h, read-out: DIZ
Escherichia coli [20] = experiment: Antibacterial activity against Escherichia coli ATCC 25922 assessed as growth inhibition at 70 ug/ml after 24 hr by Kirby-Bauer disk diffusion method; assay type: functional; conditions: ATCC 25922, 24 h, read-out: DIZ
Staphylococcus aureus [21] = experiment: Antibacterial activity against Staphylococcus aureus ATCC 25923 assessed as growth inhibition at 100 ug/ml after 24 hr by Kirby-Bauer disk diffusion method; assay type: functional; conditions: ATCC 25923, 24 h, read-out: DIZ
Escherichia coli [22] = experiment: Antibacterial activity against Escherichia coli ATCC 25922 assessed as growth inhibition at 40 ug/ml after 24 hr by Kirby-Bauer disk diffusion method; assay type: functional; conditions: ATCC 25922, 24 h, read-out: DIZ

Row | SMILES | Activity (Escherichia coli [1]) | zone of inhibition at 300 µg/mL (Staphylococcus aureus [2]) | zone of inhibition at 300 µg/mL (Candida albicans [3]) | MIC (Candida albicans [4]) | zone of inhibition at 300 µg/mL (Escherichia coli [5]) | MIC (Escherichia coli [6]) | MIC (Bacillus subtilis [7]) | MIC (Pseudomonas aeruginosa [8]) | zone of inhibition at 300 µg/mL (Pseudomonas aeruginosa [9]) | Activity (Pseudomonas aeruginosa [10]) | MIC (Staphylococcus aureus [11]) | Activity (Candida albicans [12]) | Activity (Staphylococcus aureus [13]) | zone of inhibition at 100 µg/mL (Escherichia coli [14]) | zone of inhibition at 100 µg/mL (Candida albicans [15]) | zone of inhibition at 100 µg/mL (Bacillus subtilis [16]) | Activity (Bacillus subtilis [17]) | zone of inhibition at 300 µg/mL (Bacillus subtilis [18]) | zone of inhibition at 100 µg/mL (Pseudomonas aeruginosa [19]) | zone of inhibition at 100 µg/mL (Staphylococcus aureus [21]) | also measured
1 | O=C(NCCn1c(-c2ccccc2)nc2ccc([N+](=O)[O-])cc2c1=O)Nc1ccccc1 | 100 µg/mL | 14 mm | 20 mm | 20 µg/mL (≈ 46.6 µM) | 16 mm | 70 µg/mL (≈ 163 µM) | 100 µg/mL (≈ 233 µM) | 40 µg/mL (≈ 93.1 µM) | 14 mm | 200 µg/mL | 100 µg/mL (≈ 233 µM) | 20 µg/mL | 200 µg/mL | 11 mm | 17 mm | 11 mm | 100 µg/mL | 15 mm |  |  | 
2 | O=C(NCCn1c(-c2ccccc2)nc2ccc([N+](=O)[O-])cc2c1=O)NC1CCCCC1 | 70 µg/mL | 12 mm | 21 mm | 20 µg/mL (≈ 45.9 µM) | 18 mm | 70 µg/mL (≈ 161 µM) | 100 µg/mL (≈ 230 µM) | 70 µg/mL (≈ 161 µM) | 17 mm | 70 µg/mL | 200 µg/mL (≈ 459 µM) | 20 µg/mL | 200 µg/mL | 13 mm | 13 mm |  | 200 µg/mL | 13 mm | 12 mm |  | 
3 | O=C(NCCn1c(-c2ccccc2)nc2ccc([N+](=O)[O-])cc2c1=O)Nc1ccccc1Cl | 70 µg/mL | 14 mm | 20 mm | 20 µg/mL (≈ 43.1 µM) | 18 mm | 70 µg/mL (≈ 151 µM) | 70 µg/mL (≈ 151 µM) | 100 µg/mL (≈ 216 µM) | 19 mm | 70 µg/mL | 100 µg/mL (≈ 216 µM) | 40 µg/mL | 100 µg/mL | 14 mm | 16 mm | 12 mm | 70 µg/mL | 15 mm | 13 mm | 11 mm | zone of inhibition at 70 µg/mL (Escherichia coli [20]): 11 mm
4 | O=C(NCCn1c(-c2ccccc2)nc2ccc([N+](=O)[O-])cc2c1=O)Nc1ccc(Cl)cc1 | 70 µg/mL | 12 mm | 21 mm | 40 µg/mL (≈ 86.2 µM) | 14 mm | 40 µg/mL (≈ 86.2 µM) | 70 µg/mL (≈ 151 µM) | 40 µg/mL (≈ 86.2 µM) | 16 mm | 100 µg/mL | 200 µg/mL (≈ 431 µM) | 40 µg/mL | 200 µg/mL | 12 mm | 15 mm | 12 mm | 70 µg/mL | 16 mm | 11 mm |  | 
5 | Cc1ccccc1NC(=O)NCCn1c(-c2ccccc2)nc2ccc([N+](=O)[O-])cc2c1=O | 40 µg/mL | 14 mm | 19 mm | 20 µg/mL (≈ 45.1 µM) | 16 mm | 40 µg/mL (≈ 90.2 µM) | 70 µg/mL (≈ 158 µM) | 40 µg/mL (≈ 90.2 µM) | 18 mm | 70 µg/mL | 70 µg/mL (≈ 158 µM) | 20 µg/mL | 70 µg/mL | 13 mm | 16 mm | 11 mm | 100 µg/mL | 14 mm | 12 mm | 12 mm | zone of inhibition at 40 µg/mL (Escherichia coli [22]): 11 mm
6 | Cc1ccc(NC(=O)NCCn2c(-c3ccccc3)nc3ccc([N+](=O)[O-])cc3c2=O)cc1 | 40 µg/mL | 14 mm | 17 mm | 20 µg/mL (≈ 45.1 µM) | 17 mm | 40 µg/mL (≈ 90.2 µM) | 70 µg/mL (≈ 158 µM) | 70 µg/mL (≈ 158 µM) | 17 mm | 70 µg/mL | 70 µg/mL (≈ 158 µM) | 20 µg/mL | 70 µg/mL | 14 mm | 14 mm | 12 mm | 70 µg/mL | 15 mm | 12 mm | 12 mm | zone of inhibition at 40 µg/mL (Escherichia coli [22]): 11 mm
7 | O=C(NCCn1c(-c2ccccc2)nc2ccc([N+](=O)[O-])cc2c1=O)Nc1ccc(C(F)(F)F)cc1 | 100 µg/mL | 13 mm | 20 mm | 40 µg/mL (≈ 80.4 µM) | 15 mm | 70 µg/mL (≈ 141 µM) | 70 µg/mL (≈ 141 µM) | 40 µg/mL (≈ 80.4 µM) | 18 mm | 70 µg/mL | 70 µg/mL (≈ 141 µM) | 40 µg/mL | 100 µg/mL | 11 mm | 15 mm | 12 mm | 70 µg/mL | 14 mm | 12 mm | 11 mm | 
8 | O=C(NCCn1c(-c2ccccc2)nc2ccc([N+](=O)[O-])cc2c1=O)Nc1cc(C(F)(F)F)cc(C(F)(F)F)c1 | 100 µg/mL | 12 mm | 24 mm | 20 µg/mL (≈ 35.4 µM) | 14 mm | 100 µg/mL (≈ 177 µM) | 40 µg/mL (≈ 70.7 µM) | 40 µg/mL (≈ 70.7 µM) | 19 mm | 40 µg/mL | 200 µg/mL (≈ 354 µM) | 20 µg/mL | 200 µg/mL | 11 mm | 17 mm | 14 mm | 70 µg/mL | 19 mm | 14 mm |  | 
9 | CSc1ccc(NC(=O)NCCn2c(-c3ccccc3)nc3ccc([N+](=O)[O-])cc3c2=O)cc1 | 40 µg/mL | 12 mm | 20 mm | 20 µg/mL (≈ 42.1 µM) | 18 mm | 40 µg/mL (≈ 84.1 µM) | 70 µg/mL (≈ 147 µM) | 70 µg/mL (≈ 147 µM) | 19 mm | 70 µg/mL | 200 µg/mL (≈ 421 µM) | 20 µg/mL | 200 µg/mL | 14 mm | 15 mm | 12 mm | 70 µg/mL | 16 mm | 12 mm |  | zone of inhibition at 40 µg/mL (Escherichia coli [22]): 11 mm
10 | O=C(NCCn1c(-c2ccccc2)nc2ccc([N+](=O)[O-])cc2c1=O)Nc1cc(C(F)(F)F)ccc1Cl | 70 µg/mL | 12 mm | 20 mm | 20 µg/mL (≈ 37.6 µM) | 18 mm | 70 µg/mL (≈ 132 µM) | 100 µg/mL (≈ 188 µM) | 70 µg/mL (≈ 132 µM) | 19 mm | 70 µg/mL | 200 µg/mL (≈ 376 µM) | 40 µg/mL | 300 µg/mL | 11 mm | 14 mm | 11 mm | 100 µg/mL | 14 mm | 12 mm |  | 
11 | O=C(O)c1cn(C2CC2)c2cc(N3CCNCC3)c(F)cc2c1=O [CIPROFLOXACIN] | 20 µg/mL |  |  |  |  | 15 µg/mL (≈ 45.3 µM) | 5 µg/mL (≈ 15.1 µM) | 10 µg/mL (≈ 30.2 µM) |  | 10 µg/mL | 5 µg/mL (≈ 15.1 µM) |  | 10 µg/mL |  |  |  | 5 µg/mL |  |  |  | 
12 | OC(Cn1cncn1)(Cn1cncn1)c1ccc(F)cc1F [FLUCONAZOLE] |  |  |  | 5 µg/mL (≈ 16.3 µM) |  |  |  |  |  |  |  | 10 µg/mL |  |  |  |  |  |  |  |  | 
